We go through five compounds from patent US20230160878A1, “METHOD OF SCREENING A THERAPY FOR INDUCTION OF FERROPTOSIS” (priority 2020, published 2023).

Data set [1] relates to HMOX1. The data set can be described thus: nascent RNA sequencing, transcriptional response to GPX4 inhibitors, HT-1080. The format is cell-based. The following applies: HT-1080, 1 μM, 1 hour. As to the method:
(§1) To assess the transcriptional response of a cell to inhibition of GPX4, we exposed two cell lines to two different chemical inhibitors of GPX4 (ML162 and RSL3; available from Sigma Aldrich and Apex Bio respectively) and examined the transcriptional responses using a nascent RNA sequencing protocol. Briefly, a fibrosarcoma cell line HT-1080 and a lung fibroblast cell line IMR90 were exposed to 1 μM ML162 or 1 μM RSL3 for 1 hour and the nascent RNA sequencing protocol was performed.

The test system of data set [2] is HMOX1. Nature of the data set: nascent RNA sequencing, transcriptional response to GPX4 inhibitors, IMR90. The format is cell-based. The following applies: IMR90, 1 μM, 1 hour. As to the method: as §1
For data set [3], the system named is HMOX1. Nature of the data set: RT-qPCR of HMOX1 expression in HT-1080 cells. The format is cell-based. The conditions noted are these: for HMOX1 induction with versus without ferrostatin-1: HT-1080, sodium arsenite 80 μM, hemin 5 μM, RSL3 1 μM, with or without 1 μM ferrostatin-1, four hours, normalized to DMSO. How it is done:
(§2) To confirm HMOX1 induction by the GPX4 inhibitors, an RT-qPCR assay was performed using three ferroptosis sensitive cancer cell lines: the fibrosarcoma cell line HT-1080, a Ewing's sarcoma cell line A673, and a renal clear cell carcinoma cell line 786-O. Briefly, cells were exposed to 1 μM ML162 or 1 μM RSL3 for 4 hours, RNA was isolated and an RT-qPCR assay was performed.
To further validate induction of HMOX1 mRNA expression by GPX4 inhibition, RT-qPCR was performed using varying doses of the RSL3 inhibitor. Briefly, HT-1080 cells were exposed to 5 μM RSL3, 1 μM RSL3, and 0.2 μM RSL3 for four hours, RNA was isolated and an RT-qPCR assay was performed to quantify HMOX1 expression. DMSO was used as a control exposure.
(§3) Briefly, HT-1080, A673, and 786-O cells were exposed to 1 μM ML162 or 1 μM RLS3 with or without 1 μM ferrostatin-1 for four hours, RNA was isolated and an RT-qPCR assay was performed to quantify HMOX1 expression. DMSO was used as a control exposure.
Sodium arsenite and hemin are known to be inducers of general oxidative stress in cells. Briefly, HT-1080 cells were exposed to sodium arsenite (80 μM), hemin (5 μM), ML162 (1 μM), or RSL3 (1 μM) with or without 1 μM ferrostatin-1 for four hours, RNA was isolated and an RT-qPCR assay was performed to quantify HMOX1 expression. DMSO was used as a control exposure.
On the technique in general: Real-time PCR tracks product formation cycle by cycle.

For data set [4], the system named is HMOX1. Nature of the data set: RT-qPCR of HMOX1 expression in A673 cells. The format is cell-based. The following applies: A673, 1 μM; for relative expression of HMOX1 in absence of ferrostatin-1: four hours, relative to ACTB. How it is done:
as §2, §3

Data set [5] concerns HMOX1. The data set can be described thus: RT-qPCR of HMOX1 expression in 786-O cells. The format is cell-based. The following applies: 1 μM; for relative expression of HMOX1 in absence of ferrostatin-1: four hours, relative to ACTB. As to the method: as §2, §3
Data set [6] has as its system HMOX1. Nature of the data set: RT-qPCR rescue of GPX4 inhibitor-mediated HMOX1 induction by ferrostatin-1 (HT-1080, A673 and 786-O pooled statement). The format is cell-based. The conditions noted are these: 1 μM ferrostatin-1 with 1 μM ML162 or RSL3, HT-1080, A673, 786-O, four hours. How it is done: as §3
Data set [7] relates to HT-1080, A673, and 786-O cells lines. The following applies: ferrostatin-1 added to culture media; HT-1080, A673, 786-O; cited from earlier work.
Setting [8] is: HT-1080, 1 μM, four hours, relative to ACTB.
Setting [9] is: 4 hours, normalized to DMSO control, n=2.

Regarding `COc1ccc(N(C(=O)CCl)C(C(=O)NCCc2ccccc2)c2cccs2)cc1Cl` (centres unmarked) [ML162], the “HMOX1 differential expression (nascent transcription)” value in data set [1] and in data set [2] was “strongly differentially expressed” each time. Also, in data set [3] (HT-1080, 1 μM with 1 μM ferrostatin-1, four hours, relative to ACTB), the “relative expression of HMOX1 in presence of ferrostatin-1” value is given as “induced HMOX1 even in the presence of ferrostatin-1”. In addition, the “relative expression of HMOX1 in absence of ferrostatin-1” value in data set [3] (setting [8]), in data set [4] and in data set [5] was “HMOX1 expression was observed” each time.
For the compound `COC(=O)c1ccc([C@@H]2c3[nH]c4ccccc4c3C[C@@H](C(=O)OC)N2C(=O)CCl)cc1` [RSL3], the “HMOX1 differential expression (nascent transcription)” value in data set [1] and in data set [2] was “strongly differentially expressed” in each case. The “fold induction for HMOX1 mRNA” value in data set [3] (HT-1080, 1 μM, 4 hours, normalized to DMSO control, n=2) is on record as “induced”; in data set [4] (setting [9]), “induced”; in data set [5] (setting [9]), “induced”. In addition, the “relative expression of HMOX1 in absence of ferrostatin-1” value in data set [3] (setting [8]), in data set [4] and in data set [5] was “HMOX1 expression was observed” each time. Moreover, in data set [3] (HT-1080, 5 μM, 1 μM and 0.2 μM, four hours, relative to ACTB), the “relative expression level of HMOX1, dose dependence” value is given as “proportional to the dose”. Moreover, the “HMOX1 induction with versus without ferrostatin-1” value in data set [3] is on record as “dependent on lipid peroxidation”.
Take `CCOC(=O)c1ccc(NC2CCCCC2)c(N)c1` [ferrostatin-1]: in data set [6], the “effect of ferrostatin-1 on HMOX1 induction by GPX4 inhibitors” value is recorded as “sufficient to prevent induction of HMOX1 in most conditions”. For the same compound, the “cellular viability of cells treated with small molecules that induce lipid peroxidation” value in data set [7] is “rescues cellular viability”.
Consider `O=[As]O` [sodium arsenite], for which the “HMOX1 induction with versus without ferrostatin-1” value in data set [3] is reported as “not affected by the presence of ferrostatin-1”.
The same measure, in the same setting: the value for hemin was “not affected by the presence of ferrostatin-1”.
